2 compounds from patent US9518166B2, “Film forming auxiliary agent composition for emulsion resin” (ADEKA CORPORATION, priority 2013, dated 2016) can be followed below.

What all share (type): physicochemical
A short description of data set [1]: Test 2: long-term stability test, resin 1. The arrangement: key: ⊚: homogeneous solution; ◯: no separation, but solution was partially heterogeneous (still can be used); Δ: slight separation was confirmed; X: complete separation or sedimentation was confirmed. The settings on record: 5 mass % in resin 1, one week at 40° C. The procedure:
(§1) Inventive Products 1 to 14 and Comparative Products 1 to 11 were each compounded at 5 mass % with the test emulsion resins, 80 ml of each product obtained was introduced by 80 ml into a 100-ml screw pipe, closed with a lid and allowed to stay for a week in a thermostat at 40° C. The external appearance of the emulsion resins thereafter was determined according to the following criteria. • ⊚: homogeneous solution • ◯: no separation, but solution was partially heterogeneous (still can be used) • Δ: slight separation was confirmed • X: complete separation or sedimentation was confirmed <Test 3: Water Solubility Confirmation Test>

A short description of data set [2]: Test 2: long-term stability test, resin 2. The arrangement: key: ⊚: homogeneous solution; ◯: no separation, but solution was partially heterogeneous (still can be used); Δ: slight separation was confirmed; X: complete separation or sedimentation was confirmed. As to conditions: 5 mass % in resin 2, one week at 40° C. The method, then: as §1
The next data set in a line: Boiling point.

On to `CCCCOCCO` [Comparative Product 10, butyl cellosolve], for which the “Test 2: long-term stability, external appearance” value in data set [1] and in data set [2] was “⊚” throughout. In “Boiling point”, this compound gave a boiling point of 171 °C.
In the case of `CN1CCCC1=O` [Comparative Product 11, N-methylpyrrolidone], the “Test 2: long-term stability, external appearance” value in data set [1] and in data set [2] was “⊚” throughout. The same compound registered a boiling point in the data set “Boiling point” of 202 °C.
